19 molecules from PubChem BioAssay (NCI) can be followed below.

The structures appear in SMILES notation.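 A five-concentration, 48-hour dose response in 96-well plates underlies each endpoint, interpolated linearly between surrounding concentrations. GI50 = concentration required for 50% inhibition of growth. TGI denotes the concentration required for complete inhibition of growth.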

In the first experiment the test system is OVCAR-5 ovarian. Put plainly: inhibition of tumour cell growth, NCI panel, 48 h.
`COc1ccc(C2=C(Cl)C(=O)O/C2=C\c2ccc(OC)c(Br)c2)cc1Cl` came in with a TGI of over 100 µM.
Turning to `CCCCCCCCCCCCNC(=O)CCC(NC(=O)c1ccc(N(C)Cc2cnc3nc(N)nc(N)c3n2)cc1)C(=O)NCCCCCCCCCCCC` (stereo not given), the TGI was over 100 µM.
For the molecule `CCN(CCCCCCCCCCN1CC(=O)N(CCCCCCCCCCN(CC)Cc2ccccc2OC)CC1=O)Cc1ccccc1OC`, the GI50 is 3.36 µM and the TGI was 15.1 µM.
In the case of `CC1CCc2sc3nc4n(c(=O)c3c2C1)CC(C)S4` (stereo not given), the TGI stood at 92.7 µM.
As to `Cc1cccc(NS(=O)(=O)c2ccc(N=Nc3c(O)c(C(=O)O)cc4ccccc34)cc2)n1`, the TGI is over 100 µM.
Still for that read-out and setting: then `C#CCOCC12C=CC(O1)C1COC(=O)C12` (stereo not given), with over 100 µM; and `CCOc1snc(C(Cl)(Cl)Cl)c1Cl`, with over 100 µM.

In the next experiment the test system is UO-31 renal. Nature of the experiment: inhibition of tumour cell growth, NCI panel, 48 h.
`O=CN1CCN(C(=O)c2ccco2)C1=S` displayed a TGI of 13.8 µM.
With `O=C1/C(=C/c2ccc(Cl)cc2)CCCc2ccc(F)cc21`, the GI50 was 15.8 µM and the TGI came to 35.9 µM.
In the case of `CC(=O)C1(O)CCC2(O)C3(O)CC=C4CC(O)CCC4(C)C3CC(OC(=O)c3ccc(O)cc3)C12C` (stereo not given), the TGI is over 100 µM.
Molecule `COCC#C[C@@]1(O)CCCCC1CC(OC)OC` (stereo not given in full) displayed a TGI of over 100 µM.
In turn, `C=C1CC(COc2ccc3c(C)c(C)c(=O)oc3c2C)(c2ccccc2)OC1=O` (stereo not given) displayed a TGI of 7 µM.
Molecule `CC(=O)OCC(=O)O[C@@H]1[C@H]2[C@@H](OC(=O)c3ccccc3)[C@@H](C)C[C@]2(O)[C@H](OC(C)=O)[C@@]2(C)C[C@]1(OC(C)=O)C[C@H]1C(=O)C(C)(C)[C@@H](OC(C)=O)[C@@H]12` returned a TGI of over 6.83 µM.
As for `O=C(Sc1c(-c2ccccc2)c(=O)n(-c2ccccc2)c(=S)n1-c1ccccc1)c1ccco1`, the TGI is over 100 µM.
The molecule `O=c1ccn(-c2ccccn2)c(=O)n1-c1ccccn1` yielded a TGI of over 100 µM.
`CCC(=O)Nc1ccc(NS(=O)(=O)c2ccc(Cl)cc2)cc1` returned a TGI of over 100 µM.
The same measure, in the same setting: then `S=c1[nH]nc(Cn2c3ccc(Br)cc3c3nc4ccccc4nc32)n1C1CCCCC1`, with over 76.2 µM; and `COc1ccc2c(c1)-c1c(c3cc(OC)ccc3n1CCN(C)C)CC2`, with 23.1 µM.
Same read-out and setting: then `Oc1c(OCc2nnc(CCCCCCCCc3nnc(COc4ccc5ccccc5c4O)o3)o2)ccc2ccccc12`, with over 100 µM.
The molecule `COc1ccc(C2=C(Cl)C(=O)O/C2=C\c2ccc(OC)c(Br)c2)cc1Cl` registered a TGI of over 100 µM.
Consider `CCCCCCCCCCCCNC(=O)CCC(NC(=O)c1ccc(N(C)Cc2cnc3nc(N)nc(N)c3n2)cc1)C(=O)NCCCCCCCCCCCC` (stereo not given), for which the TGI was over 100 µM.
Regarding `CCN(CCCCCCCCCCN1CC(=O)N(CCCCCCCCCCN(CC)Cc2ccccc2OC)CC1=O)Cc1ccccc1OC`, the GI50 is 1.09 µM and the TGI is 3.25 µM.
In turn, `CC1CCc2sc3nc4n(c(=O)c3c2C1)CC(C)S4` (stereo not given) gave a TGI of 7.51 µM.
On the same count and under the same terms, then `Cc1cccc(NS(=O)(=O)c2ccc(N=Nc3c(O)c(C(=O)O)cc4ccccc34)cc2)n1`, with over 100 µM; and `C#CCOCC12C=CC(O1)C1COC(=O)C12` (stereo not given), with over 100 µM; and `CCOc1snc(C(Cl)(Cl)Cl)c1Cl`, with 45.5 µM.

In the next experiment the test system is SNB-75 CNS. Put plainly: inhibition of tumour cell growth, NCI panel, 48 h.
Consider `O=CN1CCN(C(=O)c2ccco2)C1=S`, for which the TGI was determined as 34.8 µM.
`O=C1/C(=C/c2ccc(Cl)cc2)CCCc2ccc(F)cc21`: the GI50 was 48.3 µM and the TGI was over 100 µM.
As to `CC(=O)C1(O)CCC2(O)C3(O)CC=C4CC(O)CCC4(C)C3CC(OC(=O)c3ccc(O)cc3)C12C` (stereo not given), the TGI was over 100 µM.
On to `COCC#C[C@@]1(O)CCCCC1CC(OC)OC` (stereo not given in full), for which the TGI is over 100 µM.
Molecule `C=C1CC(COc2ccc3c(C)c(C)c(=O)oc3c2C)(c2ccccc2)OC1=O` (stereo not given) gave a TGI of 10.4 µM.
On to `CC(=O)OCC(=O)O[C@@H]1[C@H]2[C@@H](OC(=O)c3ccccc3)[C@@H](C)C[C@]2(O)[C@H](OC(C)=O)[C@@]2(C)C[C@]1(OC(C)=O)C[C@H]1C(=O)C(C)(C)[C@@H](OC(C)=O)[C@@H]12`, for which the TGI was over 25 µM.
`O=C(Sc1c(-c2ccccc2)c(=O)n(-c2ccccc2)c(=S)n1-c1ccccc1)c1ccco1` came in with a TGI of over 100 µM.
In turn, `O=c1ccn(-c2ccccn2)c(=O)n1-c1ccccn1` displayed a TGI of over 100 µM.
With `CCC(=O)Nc1ccc(NS(=O)(=O)c2ccc(Cl)cc2)cc1`, the TGI is over 100 µM.
As to `S=c1[nH]nc(Cn2c3ccc(Br)cc3c3nc4ccccc4nc32)n1C1CCCCC1`, the TGI is over 100 µM.
In turn, `COc1ccc2c(c1)-c1c(c3cc(OC)ccc3n1CCN(C)C)CC2` gave a TGI of 43.4 µM.
As to `Oc1c(OCc2nnc(CCCCCCCCc3nnc(COc4ccc5ccccc5c4O)o3)o2)ccc2ccccc12`, the TGI was over 100 µM.
As for `COc1ccc(C2=C(Cl)C(=O)O/C2=C\c2ccc(OC)c(Br)c2)cc1Cl`, the TGI is over 100 µM.
For `CCCCCCCCCCCCNC(=O)CCC(NC(=O)c1ccc(N(C)Cc2cnc3nc(N)nc(N)c3n2)cc1)C(=O)NCCCCCCCCCCCC` (stereo not given), the TGI was determined as 20.8 µM.
In the case of `CCN(CCCCCCCCCCN1CC(=O)N(CCCCCCCCCCN(CC)Cc2ccccc2OC)CC1=O)Cc1ccccc1OC`, the GI50 is 2.68 µM and the TGI came out at 11.8 µM.
In turn, `CC1CCc2sc3nc4n(c(=O)c3c2C1)CC(C)S4` (stereo not given) returned a TGI of 62.4 µM.
For the molecule `Cc1cccc(NS(=O)(=O)c2ccc(N=Nc3c(O)c(C(=O)O)cc4ccccc34)cc2)n1`, the TGI was over 100 µM.
As for `C#CCOCC12C=CC(O1)C1COC(=O)C12` (stereo not given), the TGI is over 100 µM.
`CCOc1snc(C(Cl)(Cl)Cl)c1Cl` gave a TGI of 54.9 µM.
